Several values for one entry are separate records, joined by “and”; a condition that tells them apart may be missing. Identical values can stand only once. Each block holds one compound with its values, some of them ahead of it.
Key:
Type in all cases: cell-based
[1] = target: T1, S170A:F801A/E837A heterodimer (Rattus norvegicus, UniProt P48442, E837A/F801A/S170A); assay: IP-One trans-activation assay, co-expression 1:1 in HEK293T
T1 construct: mGluR5 signal peptide (N); expressed in transfected cells; host or cells: HEK293T
Experimental: (§1) Human embryonic kidney (HEK) 293T cells were cultured in DMEM supplemented with 10% dFBS and 1% P/S at 37 °C and 5% CO2. 48 h prior to assay, transient transfection was performed using Lipofectamine 2000 as the transfection reagent. White opaque 96-well culture plates (PerkinElmer, Waltham, MA, USA) were used for the ELISA and the TR-FRET dimerization assay, while clear tissue culture treated 96-well plates (Corning, Corning, NY, USA) were used for the IP-One assay. Both plate types were coated with poly-D-lysine before addition of cells and transfection mix. 0.25 μl/well of Lipofectamine 2000 were diluted in 25 μl/well of Opti-MEM and incubated at room temperature (RT) for 5 min. 0.03 μg/well of DNA was diluted in 25 μl/well of Opti-MEM, and subsequently mixed with the Lipofectamine 2000 dilution and incubated 20 min at RT before addition to the plates. Cell suspensions of 170.000 HEK293T cells/mL were prepared in complete growth medium and 100 μl/well (17.000 cells/well) was added to the plates, which were incubated for 48 h at 37 °C and 5% CO2 before performing assays.
(§2) Functional activity was measured using the IP-One assay, which is an IP1 accumulation assay. For agonist testing, ligands were prepared in final concentrations in ligand buffer (HBSS, 20 mM HEPES, pH 7.4 supplemented with 20 mM LiCl). Cells were washed once with 100 μl/well of assay buffer (HBSS, 20 mM HEPES, pH 7.4) and 50 μl/well of agonist solution was added after which plates were incubated at 37 °C for 30 min. Subsequently, ligand solutions were removed and cells were washed with 100 μl/well of assay buffer. Cell lysis was performed by addition of 30 μl/well of IP-One Conjugate & Lysis Buffer (Cisbio Bioassays, Codolet, France) and plates were incubated at RT for 30 min. Afterwards, 30 μl/well of assay buffer was added to dilute the cell lysate. 10 μl/well of cell lysate was transferred from the 96-well plate to a 384-well Optiplate and 10 μl/well of detection solution (Assay buffer + 2.5% of anti-IP1 antibody cryptate Terbium conjugate + 2.5% IP1-d2 conjugate (Cisbio Bioassays, Codolet, France)) was also added. The 384-well plate was incubated for 1 h at RT in dark before being measured on an EnVision plate reader (PerkinElmer, Waltham, MA, USA). Upon excitation at 340 nm, emission at 615 nm and 665 nm was measured, and the FRET ratio (665 nm/615 nm) was converted to IP1 concentrations by interpolating values from an IP1 standard curve generated from a provided IP1 calibrator (Cisbio Bioassays, Codolet, France). When testing allosteric modulators, cells were pre-incubated for 30 min at 37 °C with 50 μl/well of ligand buffer supplemented with allosteric modulator and a final concentration of 1% DMSO. Afterwards, the buffer solution was removed and 50 μl/well of agonist solution in ligand buffer supplemented with allosteric modulator and a final concentration of 1% DMSO was added. Plates were incubated for 30 min at 37 °C followed by one wash in 100 μl/well of assay buffer. Cell lysis and detection was performed as described above.

[2] = target: T2, S170A/E837A:F801A/E837A heterodimer (Rattus norvegicus, UniProt P48442, E837A/F801A/S170A); assay: as above
T2 construct: mGluR5 signal peptide (N); expressed in transfected cells; host or cells: HEK293T
Experimental: as §1, §2

[3] = target: T3, HA-S170A CaSR mutant (ATD mutant) (Rattus norvegicus, UniProt P48442, S170A); assay: IP-One assay, HEK293T transiently transfected
T3 construct: mGluR5 signal peptide (N); expressed in transfected cells; host or cells: HEK293T
T3 sequence (P48442 20-1079 S170A): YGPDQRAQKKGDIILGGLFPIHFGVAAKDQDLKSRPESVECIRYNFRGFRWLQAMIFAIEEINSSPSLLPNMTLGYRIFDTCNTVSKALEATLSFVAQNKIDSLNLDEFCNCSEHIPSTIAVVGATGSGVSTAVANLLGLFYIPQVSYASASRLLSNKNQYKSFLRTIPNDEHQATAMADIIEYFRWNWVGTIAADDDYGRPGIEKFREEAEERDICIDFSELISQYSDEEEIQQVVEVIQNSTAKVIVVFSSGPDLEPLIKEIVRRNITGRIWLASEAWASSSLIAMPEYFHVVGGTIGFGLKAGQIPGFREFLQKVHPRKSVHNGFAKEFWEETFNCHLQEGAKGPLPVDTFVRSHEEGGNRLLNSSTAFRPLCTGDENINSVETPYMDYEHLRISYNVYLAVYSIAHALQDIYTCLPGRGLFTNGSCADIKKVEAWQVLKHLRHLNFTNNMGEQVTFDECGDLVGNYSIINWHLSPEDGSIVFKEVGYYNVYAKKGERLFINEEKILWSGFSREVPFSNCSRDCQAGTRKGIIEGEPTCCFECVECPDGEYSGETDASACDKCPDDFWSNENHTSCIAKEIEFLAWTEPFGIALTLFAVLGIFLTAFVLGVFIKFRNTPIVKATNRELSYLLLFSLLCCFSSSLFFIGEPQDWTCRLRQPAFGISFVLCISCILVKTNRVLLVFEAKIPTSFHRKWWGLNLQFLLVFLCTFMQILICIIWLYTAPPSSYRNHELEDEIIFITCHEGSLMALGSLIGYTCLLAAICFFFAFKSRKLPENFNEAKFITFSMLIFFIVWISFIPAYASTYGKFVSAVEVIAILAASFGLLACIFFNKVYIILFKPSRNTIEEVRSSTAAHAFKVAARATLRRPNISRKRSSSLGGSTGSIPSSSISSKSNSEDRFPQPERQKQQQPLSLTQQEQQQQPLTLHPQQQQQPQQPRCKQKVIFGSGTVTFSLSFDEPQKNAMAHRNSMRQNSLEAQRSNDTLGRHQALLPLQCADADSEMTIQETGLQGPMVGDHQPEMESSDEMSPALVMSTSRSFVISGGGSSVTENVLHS
Experimental: as §1, §2

[4] = target: T4, HA-F801A CaSR mutant (ICL3 mutant) (Rattus norvegicus, UniProt P48442, F801A); assay: IP-One assay, HEK293T transiently transfected
T4 construct: mGluR5 signal peptide (N); expressed in transfected cells; host or cells: HEK293T
Experimental: as §1, §2

T4 sequence (P48442 20-1079 F801A): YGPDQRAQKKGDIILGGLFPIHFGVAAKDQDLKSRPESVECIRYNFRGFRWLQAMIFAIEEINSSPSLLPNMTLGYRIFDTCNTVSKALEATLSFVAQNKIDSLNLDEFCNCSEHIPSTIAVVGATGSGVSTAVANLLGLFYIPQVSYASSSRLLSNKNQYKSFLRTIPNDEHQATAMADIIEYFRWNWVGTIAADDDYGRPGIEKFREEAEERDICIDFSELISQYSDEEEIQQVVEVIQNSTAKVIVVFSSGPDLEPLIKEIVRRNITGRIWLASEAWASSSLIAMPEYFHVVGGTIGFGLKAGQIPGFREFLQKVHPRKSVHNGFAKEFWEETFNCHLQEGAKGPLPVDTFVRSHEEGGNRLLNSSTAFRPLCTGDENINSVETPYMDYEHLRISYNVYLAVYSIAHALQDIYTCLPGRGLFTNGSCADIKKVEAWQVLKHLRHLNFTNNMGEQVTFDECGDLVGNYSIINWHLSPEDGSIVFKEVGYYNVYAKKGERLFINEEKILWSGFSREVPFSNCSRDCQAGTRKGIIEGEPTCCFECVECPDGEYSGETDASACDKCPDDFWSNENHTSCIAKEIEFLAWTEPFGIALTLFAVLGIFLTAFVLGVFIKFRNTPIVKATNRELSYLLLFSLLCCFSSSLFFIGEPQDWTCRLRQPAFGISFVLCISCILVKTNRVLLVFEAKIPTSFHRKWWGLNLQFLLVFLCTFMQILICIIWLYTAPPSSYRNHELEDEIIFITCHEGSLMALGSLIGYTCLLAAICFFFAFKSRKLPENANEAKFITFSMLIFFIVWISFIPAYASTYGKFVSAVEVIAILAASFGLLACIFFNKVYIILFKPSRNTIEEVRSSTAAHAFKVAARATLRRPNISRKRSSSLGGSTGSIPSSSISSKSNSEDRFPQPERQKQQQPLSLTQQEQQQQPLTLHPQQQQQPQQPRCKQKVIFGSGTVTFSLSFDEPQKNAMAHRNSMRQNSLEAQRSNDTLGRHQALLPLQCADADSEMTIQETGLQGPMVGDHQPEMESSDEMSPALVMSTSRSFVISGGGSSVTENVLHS
T2 sequence (P48442 20-1079 S170A/E837A): as the sequence (P48442 20-1079 F801A) above, with S151A, A782F, E818A counted along it
T2 sequence (P48442 20-1079 F801A/E837A): as the sequence (P48442 20-1079 F801A) above, with E818A counted along it
T1 sequence (P48442 20-1079 F801A/E837A, one chain of several): as the sequence (P48442 20-1079 F801A) above, with E818A counted along it

inhibition of Ca^2+-mediated response ([1]; S170A:F801A/E837A heterodimer, 5 μM NPS 2143): full inhibition | inhibition of Ca^2+-mediated response ([2]; S170A/E837A:F801A/E837A heterodimer, 0.2, 1 and 5 μM NPS 2143): not subjected to inhibition
Compound: CC(C)(Cc1ccc2ccccc2c1)NC[C@@H](O)COc1cccc(Cl)c1C#N.Cl [NPS 2143, NPS 2143 hydrochloride]

potentiation of Ca^2+-mediated response ([1]; S170A:F801A/E837A heterodimer, 0.05, 0.1 and 1 μM NPS R-568): potentiated | potentiation of Ca^2+-mediated response ([2]; S170A/E837A:F801A/E837A heterodimer, 0.05, 0.1 and 1 μM NPS R-568): not potentiated | potentiation of Ca^2+-mediated response ([3]; S170A co-expressed with pEGFPN1, 23 mM Ca^2+, 0.05, 0.1 and 1 μM NPS R-568): concentration-dependent potentiation
Compound: COc1cccc([C@@H](C)NCCCc2ccccc2Cl)c1.Cl [NPS R-568, NPS R-568 hydrochloride]

EC50 ([4]; Ca^2+ alone): > 30 mM | Max ± S.E.M. ([4]; normalized to maximum response of WT CaSR): 5.8 ± 0.4% | EC50 ([3]; HA-S170A, Ca^2+ alone): > 45 mM | Max ± S.E.M. ([3]; HA-S170A, normalized to maximum response of WT CaSR, at highest tested Ca^2+ concentration): 17% and 17 ± 0.7%
Compound: [Ca+2] [Ca^2+]

Reference: publication PMC5394417, “Investigating the molecular mechanism of positive and negative allosteric modulators in the calcium-sensing receptor dimer” (Scientific Reports, 2017)
